Data as given in patent publication US8822451B2, “Modulators of ATP-binding cassette transporters” (Vertex Pharmaceuticals Incorporated, priority 2005, dated 2014).

Molecular target: T1, […]F508-CFTR (Homo sapiens, UniProt P13569, DEL508-508)
T1 construct: expressed in transfected cells
Assay: Assay results of Table 3: ΔF508-CFTR modulation, membrane potential optical assay (assay format not stated)
Type: cell-based
Settings: NIH3T3 mouse fibroblasts stably expressing […]F508-CFTR (optical assays); for Efficacy: efficacy range; for EC50: potency range
Summary of the method: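 Two VIPR II FRET voltage-dye formats in ΔF508-CFTR NIH3T3 cells yield EC50 and efficacy. Potentiator mode: 27° C.-corrected cells get compound in Cl⁻-free medium, forskolin 2-10 μM after 22 s (final Cl⁻ 28 mM). Corrector mode: compound 16 h at 37° C., activation with forskolin 10 μM plus genistein 20 μM.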

T1 sequence (P13569 with tags, fused parts or gaps DEL508-508): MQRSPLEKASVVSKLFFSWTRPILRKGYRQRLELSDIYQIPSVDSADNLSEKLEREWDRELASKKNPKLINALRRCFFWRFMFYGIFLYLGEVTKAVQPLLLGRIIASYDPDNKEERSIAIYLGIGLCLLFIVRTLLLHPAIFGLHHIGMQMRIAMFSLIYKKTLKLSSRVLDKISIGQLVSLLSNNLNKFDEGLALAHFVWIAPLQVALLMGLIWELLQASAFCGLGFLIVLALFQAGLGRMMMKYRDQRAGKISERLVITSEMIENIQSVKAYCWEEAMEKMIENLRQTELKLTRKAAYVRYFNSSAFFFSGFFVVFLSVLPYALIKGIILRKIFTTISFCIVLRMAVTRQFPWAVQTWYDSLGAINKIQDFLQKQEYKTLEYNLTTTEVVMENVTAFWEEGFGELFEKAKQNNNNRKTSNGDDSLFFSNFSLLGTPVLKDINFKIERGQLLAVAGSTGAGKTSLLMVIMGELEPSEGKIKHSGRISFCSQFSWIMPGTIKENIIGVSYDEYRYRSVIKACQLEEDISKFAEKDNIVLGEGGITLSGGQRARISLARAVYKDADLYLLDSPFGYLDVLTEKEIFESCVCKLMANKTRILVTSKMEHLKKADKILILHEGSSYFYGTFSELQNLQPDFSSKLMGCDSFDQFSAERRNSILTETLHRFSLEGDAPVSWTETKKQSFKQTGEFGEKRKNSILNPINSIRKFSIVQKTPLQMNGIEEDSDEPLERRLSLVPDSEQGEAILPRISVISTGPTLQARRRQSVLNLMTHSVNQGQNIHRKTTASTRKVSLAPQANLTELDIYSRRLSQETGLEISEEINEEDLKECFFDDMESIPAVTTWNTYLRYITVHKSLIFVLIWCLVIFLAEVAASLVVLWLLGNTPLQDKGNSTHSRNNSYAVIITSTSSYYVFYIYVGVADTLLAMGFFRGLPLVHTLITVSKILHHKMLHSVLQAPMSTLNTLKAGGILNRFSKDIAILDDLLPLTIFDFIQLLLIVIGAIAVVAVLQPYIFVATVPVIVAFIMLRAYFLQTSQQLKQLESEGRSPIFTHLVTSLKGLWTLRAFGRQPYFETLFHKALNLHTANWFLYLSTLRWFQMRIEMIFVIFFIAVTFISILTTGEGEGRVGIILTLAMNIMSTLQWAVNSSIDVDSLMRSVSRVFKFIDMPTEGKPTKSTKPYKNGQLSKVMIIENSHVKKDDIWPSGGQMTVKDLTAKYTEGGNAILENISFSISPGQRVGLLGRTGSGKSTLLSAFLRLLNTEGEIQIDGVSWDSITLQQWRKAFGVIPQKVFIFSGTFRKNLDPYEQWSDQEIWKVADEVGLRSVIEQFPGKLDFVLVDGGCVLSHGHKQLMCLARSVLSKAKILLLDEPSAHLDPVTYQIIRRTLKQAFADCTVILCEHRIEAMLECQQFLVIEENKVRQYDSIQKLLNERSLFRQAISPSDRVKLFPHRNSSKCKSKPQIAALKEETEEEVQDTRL

Structure (SMILES) | Efficacy | EC50 [µM]
COc1ccc(C2(CNc3nc(C(N)=O)cc(-c4ccccc4)n3)CC2)cc1OC [Compound 132] | +++ (+++ corresponds to Efficacy greater than 100) | > 5
CCN(CC)c1nc(C(N)=O)cc(-c2cc(F)ccc2OC)n1 [Compound 133] | ++ (++ corresponds to Efficacy between 100 and 50) | < 1
CC1CN(c2nc(C(N)=O)cc(-c3ccccc3)n2)CC(C)O1 (stereo not shown) [Compound 134] | ++ (++ corresponds to Efficacy between 100 and 50) | > 5
COc1ccccc1-c1cc(C(N)=O)nc(N2CC=CCC2)n1 [Compound 135] | ++ (++ corresponds to Efficacy between 100 and 50) | > 5
NC(=O)c1cc(-c2ccccc2)nc(CC2CCCCC2)n1 [Compound 136] | ++ (++ corresponds to Efficacy between 100 and 50) | > 5
COc1ccc(F)cc1-c1cc(C(N)=O)nc(N2CCCCC2)n1 [Compound 137] | ++ (++ corresponds to Efficacy between 100 and 50) | 1 to 5
CCNc1nc(C(N)=O)cc(-c2cccc(OC)c2)n1 [Compound 138] | ++ (++ corresponds to Efficacy between 100 and 50) | > 5
NC(=O)c1cc(-c2ccccc2)nc(N2CCC(n3c(=O)[nH]c4ccccc43)CC2)n1 [Compound 139] | ++ (++ corresponds to Efficacy between 100 and 50) | > 5
NC(=O)c1cc(-c2ccc(Cl)c(Cl)c2)nc(N2CCCCC2)n1 [Compound 140] | ++ (++ corresponds to Efficacy between 100 and 50) | 1 to 5
CCN(CC)C(=O)c1cc(-c2ccccc2)nc(N(CC)CC)n1 [Compound 141] | ++ (++ corresponds to Efficacy between 100 and 50) | 1 to 5
COc1ccc(-c2cc(C(N)=O)nc(N3CCCCC3)n2)cc1 [Compound 142] | ++ (++ corresponds to Efficacy between 100 and 50) | > 5
NC(=O)c1cc(-c2ccccc2)nc(N2CCC(O)(Cc3ccccc3)CC2)n1 [Compound 143] | + (+ corresponds to Efficacy less than 50) | > 5
NC(=O)c1cc(-c2csc3ccccc23)nc(N2CCCCC2)n1 [Compound 144] | ++ (++ corresponds to Efficacy between 100 and 50) | > 5
C#CCNc1nc(C(N)=O)cc(-c2cccc(OC)c2)n1 [Compound 145] | ++ (++ corresponds to Efficacy between 100 and 50) | > 5
NC(=O)c1cc(-c2ccccc2Oc2ccccc2)nc(N2CCCCC2)n1 [Compound 146] | +++ (+++ corresponds to Efficacy greater than 100) | 1 to 5
CCN(CC)c1nc(C(N)=O)cc(-c2ccc(Cl)cc2)n1 [Compound 147] | ++ (++ corresponds to Efficacy between 100 and 50) | < 1
NC(=O)c1cc(-c2ccccc2)nc(N2CCC3CCCCC3C2)n1 (stereo not shown) [Compound 148] | ++ (++ corresponds to Efficacy between 100 and 50) | 1 to 5
CC1CCCN(c2nc(C(N)=O)cc(-c3ccccc3)n2)C1 (stereo not shown) [Compound 149] | ++ (++ corresponds to Efficacy between 100 and 50) | > 5
CCCN(CC1CC1)c1nc(C(=O)N(C)C)cc(-c2ccccc2)n1 [Compound 150] | ++ (++ corresponds to Efficacy between 100 and 50) | 1 to 5

Structure (SMILES) | Efficacy | EC50 [µM]
CCN(CC)c1nc(C(N)=O)cc(-c2cc(F)cc(F)c2)n1 [Compound 151] | +++ (+++ corresponds to Efficacy greater than 100) | 1 to 5
NC(=O)c1cc(-c2ccccc2OC(F)(F)F)nc(N2CCCCC2)n1 [Compound 152] | ++ (++ corresponds to Efficacy between 100 and 50) | 1 to 5
CNC(=O)c1cc(-c2ccccc2)nc(N2CC=CCC2)n1 [Compound 153] | ++ (++ corresponds to Efficacy between 100 and 50) | > 5
C#CCNc1nc(C(N)=O)cc(-c2ccccc2)n1 [Compound 154] | + (+ corresponds to Efficacy less than 50) | > 5
CCN(CC)c1nc(C(N)=O)cc(-c2ccc(S(=O)(=O)CC)cc2)n1 [Compound 155] | ++ (++ corresponds to Efficacy between 100 and 50) | > 5
CCN(CCO)c1nc(C(=O)NC)cc(-c2ccccc2)n1 [Compound 156] | + (+ corresponds to Efficacy less than 50) | > 5
CCN(CC)c1nc(C(=O)N2CCCCC2)cc(-c2ccccc2)n1 [Compound 157] | + (+ corresponds to Efficacy less than 50) | > 5
CCN(CC)c1nc(C(N)=O)cc(-c2cccc(CO)c2)n1 [Compound 158] | ++ (++ corresponds to Efficacy between 100 and 50) | > 5
CC(C)CN(C)c1nc(C(N)=O)cc(-c2ccccc2)n1 [Compound 159] | +++ (+++ corresponds to Efficacy greater than 100) | 1 to 5
CCN(CC)c1nc(C(N)=O)cc(-c2cccc(F)c2)n1 [Compound 160] | ++ (++ corresponds to Efficacy between 100 and 50) | > 5
COc1cccc(-c2cc(C(N)=O)nc(N3CCCCCC3)n2)c1 [Compound 161] | +++ (+++ corresponds to Efficacy greater than 100) | 1 to 5
CN(Cc1ccco1)c1nc(C(N)=O)cc(-c2ccccc2)n1 [Compound 162] | ++ (++ corresponds to Efficacy between 100 and 50) | 1 to 5
CCN(CC)c1nc(C(N)=O)cc(-c2cc(F)ccc2F)n1 [Compound 163] | ++ (++ corresponds to Efficacy between 100 and 50) | < 1
CN(Cc1ccccc1)c1nc(C(N)=O)cc(-c2ccccc2)n1 [Compound 164] | ++ (++ corresponds to Efficacy between 100 and 50) | 1 to 5
CC1CCN(c2nc(C(N)=O)cc(-c3ccccc3)n2)CC1 [Compound 165] | +++ (+++ corresponds to Efficacy greater than 100) | > 5
CC(C)c1ccc(-c2cc(C(N)=O)nc(N3CCCCC3)n2)cc1 [Compound 166] | + (+ corresponds to Efficacy less than 50) | > 5
NC(=O)c1cc(-c2ccccc2)nc(N2CCOCC2)n1 [Compound 167] | ++ (++ corresponds to Efficacy between 100 and 50) | > 5
COc1cccc(-c2cc(C(N)=O)nc(N3CCCCC3)n2)c1 [Compound 168] | +++ (+++ corresponds to Efficacy greater than 100) | > 5
NC(=O)c1cc(-c2ccccc2)nc(N2CCSC2)n1 [Compound 169] | +++ (+++ corresponds to Efficacy greater than 100) | > 5

Structure (SMILES) | Efficacy | EC50 [µM]
NC(=O)c1cc(-c2cc3ccccc3s2)nc(N2CCCCC2)n1 [Compound 170] | + (+ corresponds to Efficacy less than 50) | 1 to 5
CCCCN(CCCC)c1nc(C(N)=O)cc(-c2ccccc2)n1 [Compound 171] | ++ (++ corresponds to Efficacy between 100 and 50) | < 1
CCN(CC)c1nc(C(N)=O)cc(-c2ccc(OC)cc2OC)n1 [Compound 172] | +++ (+++ corresponds to Efficacy greater than 100) | 1 to 5
COc1cccc(-c2cc(C(N)=O)nc(NCc3ccco3)n2)c1 [Compound 173] | ++ (++ corresponds to Efficacy between 100 and 50) | > 5
CCN(CC)c1nc(C(N)=O)cc(-c2cnc(OC)nc2OC)n1 [Compound 174] | ++ (++ corresponds to Efficacy between 100 and 50) | > 5
Cc1cc(-c2cc(C(N)=O)nc(N3CCCCC3)n2)ccc1F [Compound 175] | ++ (++ corresponds to Efficacy between 100 and 50) | > 5
COc1ccc(-c2cc(C(N)=O)nc(NCc3ccco3)n2)cc1 [Compound 176] | ++ (++ corresponds to Efficacy between 100 and 50) | > 5
CCN(CC)C(=O)C1CCCN(c2nc(C(N)=O)cc(-c3ccccc3)n2)C1 (stereo not shown) [Compound 177] | ++ (++ corresponds to Efficacy between 100 and 50) | > 5
C=CCNc1nc(C(N)=O)cc(-c2ccccc2OC)n1 [Compound 178] | +++ (+++ corresponds to Efficacy greater than 100) | 1 to 5
CNc1nc(C(N)=O)cc(-c2ccccc2)n1 [Compound 179] | + (+ corresponds to Efficacy less than 50) | > 5
N#CC1(c2ccccc2)CCN(c2nc(C(N)=O)cc(-c3ccccc3)n2)CC1 [Compound 180] | ++ (++ corresponds to Efficacy between 100 and 50) | > 5
NC(=O)c1cc(-c2ccccc2)nc(N2CCC(CCO)CC2)n1 [Compound 181] | ++ (++ corresponds to Efficacy between 100 and 50) | > 5
NC(=O)c1cc(-c2ccc(OC(F)(F)F)cc2)nc(N2CCCCC2)n1 [Compound 182] | + (+ corresponds to Efficacy less than 50) | 1 to 5
NC(=O)c1cc(-c2ccccc2)nc(N2CCC2)n1 [Compound 183] | ++ (++ corresponds to Efficacy between 100 and 50) | > 5
CCN(CC)c1nc(C(N)=O)cc(-c2ccc(CC(C)C)cc2)n1 [Compound 184] | ++ (++ corresponds to Efficacy between 100 and 50) | < 1
NC(=O)c1cc(-c2cccc(C(F)(F)F)c2)nc(N2CCCCC2)n1 [Compound 185] | + (+ corresponds to Efficacy less than 50) | > 5
CCCCCN(C)c1nc(C(N)=O)cc(-c2ccccc2)n1 [Compound 186] | +++ (+++ corresponds to Efficacy greater than 100) | 1 to 5
COc1ccc(C2(CNc3nc(C(N)=O)cc(-c4ccccc4)n3)CCCC2)cc1OC [Compound 187] | ++ (++ corresponds to Efficacy between 100 and 50) | 1 to 5
